Laboratory results reported in paper PMC5034043 (The Journal of Biological Chemistry, 2016).
Like-named read-outs stand apart in the source and are kept apart here.

Tested on: T1, synaptosomal proteome
T1 construct: from tissue; host or cells: brain synaptosomes of male C57/B6 mice
Format: binding, mouse
Procedure: Synaptosomes were resuspended to 1 mg of protein/ml in HEPES buffer medium (in mM: 140 NaCl, 5 KCl, 5 NaHCO3, 1.2 NaH2PO4, 1 MgCl2, 10 glucose, and 10 HEPES (pH 7.4)). […] The samples were allowed to equilibrate for 5 min before being transferred to a parafilm-sealed 1-mm path length quartz cuvette. The sample was then irradiated for 20 min at a peak bandwidth of 350 nm (Rayonet RPR-3500 lamp) ∼6 cm from the light source. Non-irradiated samples were left in the dark at ambient temperature (22–25 °C) for 20 min. All remaining procedures were conducted with restricted light exposure.
To 750 μg of photolabeled or control synaptosome samples, 40 μl of 10% SDS and 2 μl of 5 mM DTT in water were added. Samples were then vortexed, heated for 10 min at 65 °C, and then briefly cooled. Final concentrations of 150 μM azide-biotin (Click Chemistry Tools), 2 mM tris(3-hydroxypropyltriazolylmethyl)amine (Sigma), 1 mM ascorbic acid (Sigma), and 1 mM CuSO4·5H2O (Sigma) were added to each sample and vortexed vigorously. The samples were left in the dark at ambient temperature (22–25 °C) for 1 h with mild agitation. Directly to each sample 4× volume chilled methanol, 1.5× chilled chloroform, and 3× chilled double distilled H2O were added. Samples were vortexed vigorously and centrifuged at 1,400 × g for 30 min at 4 °C. Both liquid layers were carefully removed, and the protein pellet was washed with 2 ml of 1:1 (v/v) chilled methanol/chloroform. Samples were centrifuged at 3,500 × g for 30 min at 4 °C. Protein pellets were briefly air-dried before further processing.
750 μg of biotin-conjugated protein sample was resuspended in 500 μl of 25 mM NH4HCO3 and 6 M urea in water. Next, 150 μl of 5% Triton X-100 in water, 50 μl of 10% SDS in water, and 1.5 μl of 0.5 M DTT were added. The samples were heated for 15 min at 65 °C. After briefly cooling, 14 μl of 0.5 M iodoacetamide in water was added, and the sample was left in the dark for 45 min. […] The supernatant was diluted to 4 ml with PBS, and 2 ml of PBS containing 100 μl of 50% streptavidin-agarose resin (Thermo Scientific) was added. Biotinylated proteins within the sample were captured over resin overnight at 4 °C with mild agitation. The resin was first washed with 6 ml of 1% SDS in PBS, and then 7 ml of 0.1 M urea in PBS followed by 10 ml of PBS. The resin underwent a final wash with 0.9 ml of 50 mM Tris-HCl and 1 mM CaCl2 in water (pH 8.0) and then resuspended in 200 μl of 50 mM Tris-HCl, 1 mM CaCl2 in water (pH 8.0), and 2 μg of porcine sequencing grade trypsin (Promega). Samples were digested overnight at 37 °C. Samples were then centrifuged at 2,000 × g for 4 min, and digest supernatant was decanted. Beads were washed in 100 μl of PBS centrifuged at 5,200 × g for 5 min, and the wash was combined with the digest supernatant. To the combined sample, trifluoroacetic acid (TFA) was added to 0.4% (v/v) or until pH <2. The sample was desalted with Oasis C18 10-mg columns (Waters) as described previously ([66]). The eluted sample was dried by speed vac and resuspended in 0.1 M HEPES buffer (pH 8.5). […] Appropriate corresponding TMTsixplex^TM-labeled samples were pooled and dried by speed vac. The combined samples were resuspended in 0.5% acetic acid in water and pH-corrected with acetic acid until pH was <2. 40 μg of protein was desalted with C18 stage tips prepared in-house and dried by speed vac.
Samples were resuspended in 10 mM KH2PO4 (pH 2.6), 30% acetonitrile (v/v) in water, and fractionated by off-line strong cation exchange chromatography prior to mass spectrometry (MS) analysis similar to as reported previously ([66]). The full synaptosome proteome control was prepared similarly without TMTsixplex^TM labeling.
All TMT samples were analyzed with three-stage mass spectrometry (MS3) TMTsixplex^TM quantification workflow as described previously ([34]).

[1] = protein P26049 Gamma-aminobutyric acid receptor subunit alpha-3 (Gabra3)
[2] = protein P27671 Ras-specific guanine nucleotide-releasing factor 1 (Rasgrf1)
[3] = protein P35762 CD81 antigen (Cd81)
[4] = protein P50571 Gamma-aminobutyric acid receptor subunit beta-1 (Gabrb1)
[5] = protein P56480 ATP synthase subunit beta, mitochondrial (Atp5b)
[6] = protein P56564 Excitatory amino acid transporter 1 (Slc1a3)
[7] = protein P60879 Synaptosomal-associated protein 25 (Snap25)
[8] = protein P61264 Syntaxin-1B (Stx1b)
[9] = protein P62204 Calmodulin (Calm1)
[10] = protein P63328 Serine/threonine-protein phosphatase 2B catalytic subunit alpha isoform (Ppp3ca)
[11] = protein Q2TPA8 Hydroxysteroid dehydrogenase-like protein 2 (Hsdl2)
[12] = protein Q3TXX4 Vesicular glutamate transporter 1 (Slc17a7)
[13] = protein Q3UN02 Lysocardiolipin acyltransferase 1 (Lclat1)
[14] = protein Q4W8U9 Scg2 protein (Scg2)
[15] = protein Q5IRJ6 Zinc transporter 9 (Slc30a9)
[16] = protein Q5U458 DnaJ homolog subfamily C member 11 (Dnajc11)
[17] = protein Q7TME0 Lipid phosphate phosphatase-related protein type 4 (Lppr4)
[18] = protein Q7TQ95 Protein lunapark (Lnp)
[19] = protein Q8BFT9 Synaptic vesicle 2-related protein (Svop)
[20] = protein Q8BG51 Mitochondrial Rho GTPase 1 (Rhot1)
[21] = protein Q8BH24 Transmembrane 9 superfamily member 4 (Tm9sf4)
[22] = protein Q8BH66 Atlastin-1 (Atl1)
[23] = protein Q8BHE3 Caytaxin (Atcay)
[24] = protein Q8BUN9 Protein Slc24a2 (Slc24a2)
[25] = protein Q8BW75 Amine oxidase [flavin-containing] B (Maob)
[26] = protein Q8CGK7 Guanine nucleotide-binding protein G(olf) subunit alpha (Gnal)
[27] = protein Q8K0T0 Reticulon-1 (Rtn1)
[28] = protein Q8VCX5 Calcium uptake protein 1, mitochondrial (Micu1)
[29] = protein Q9CPQ3 Mitochondrial import receptor subunit TOM22 homolog (Tomm22)
[30] = protein Q9D6J5 NADH dehydrogenase [ubiquinone] 1 beta subcomplex subunit 8, mitochondrial (Ndufb8)
[31] = protein Q9D328 Transmembrane protein 35 (Tmem35)
[32] = protein Q9ERS2 NADH dehydrogenase [ubiquinone] 1 alpha subcomplex subunit 13 (Ndufa13)
[33] = protein Q9ESW4 Acylglycerol kinase, mitochondrial (Agk)
[34] = protein Q9JIG8 PRA1 family protein 2 (Praf2)
[35] = protein Q9QXV0 ProSAAS (Pcsk1n)
[36] = protein Q9WU79 Proline dehydrogenase 1, mitochondrial (Prodh)
[37] = protein Q9Z0V2 Potassium voltage-gated channel subfamily D member 2 (Kcnd2)
[38] = protein Q67BT3 Solute carrier family 13 member 5 (Slc13a5)
[39] = protein Q80X80 C2 domain-containing protein 2-like (C2cd2l)
[40] = protein Q91YQ5 Dolichyl-diphosphooligosaccharide--protein glycosyltransferase subunit 1 (Rpn1)
[41] = protein Q99JB2 Stomatin-like protein 2, mitochondrial (Stoml2)
[42] = protein Q99PU5 Long-chain-fatty-acid--CoA ligase ACSBG1 (Acsbg1)
[43] = protein Q925I1 ATPase family AAA domain-containing protein 3 (Atad3)

C#CCOCc1ccc(C2(C(F)(F)F)N=N2)cc1O [AziPm-click (1), 2-((prop-2-yn-1-yloxy)methyl)-5-(3-(trifluoromethyl)-3H-diazirin-3-yl)phenol]
TMT Ratio Mean 'UV/ No UV' (protein O35963 Ras-related protein Rab-33B (Rab33b)): 16.23 | Log2( Mean 'UV/ No UV') (protein P23819-4 Isoform 4 of Glutamate receptor 2 (Gria2)): 3.65 | Log2( Mean 'UV/ No UV') [1]: 4.09 | TMT Ratio Mean 'UV/ No UV' [1]: 17.05 | Log2( Mean 'UV/ No UV') [2]: 4.14 | TMT Ratio Mean 'UV/ No UV' [2]: 17.58 | Log2( Mean 'UV/ No UV') (protein P35564 Calnexin (Canx)): 4.47 | TMT Ratio Mean 'UV/ No UV' (protein P35564 Calnexin (Canx)): 22.10 | Log2( Mean 'UV/ No UV') [3]: 4.34 | TMT Ratio Mean 'UV/ No UV' [3]: 20.23 | Log2( Mean 'UV/ No UV') [4]: 4.63 | TMT Ratio Mean 'UV/ No UV' [4]: 24.73 | Log2( Mean 'UV/ No UV') [5]: 3.54 | TMT Ratio Mean 'UV/ No UV' [5]: 11.59 | Log2( Mean 'UV/ No UV') [6]: 4.59 | TMT Ratio Mean 'UV/ No UV' [6]: 24.11 | Log2( Mean 'UV/ No UV') [7]: 4.57 | TMT Ratio Mean 'UV/ No UV' [7]: 23.77 | Log2( Mean 'UV/ No UV') [8]: 4.37 | TMT Ratio Mean 'UV/ No UV' [8]: 20.71 | Log2( Mean 'UV/ No UV') [9]: 4.63 | TMT Ratio Mean 'UV/ No UV' [9]: 24.78 | Log2( Mean 'UV/ No UV') [10]: 3.65 | TMT Ratio Mean 'UV/ No UV' [10]: 12.55 | Log2( Mean 'UV/ No UV') (protein P70429-2 Isoform 1 of Ena/VASP-like protein (Evl)): 4.31 | Log2( Mean 'UV/ No UV') (protein P97300-3 Isoform 3 of Neuroplastin (Nptn)): 3.67 | Log2( Mean 'UV/ No UV') [11]: 3.68 | TMT Ratio Mean 'UV/ No UV' [11]: 12.83 | Log2( Mean 'UV/ No UV') [12]: 4.04 | TMT Ratio Mean 'UV/ No UV' [12]: 16.48 | Log2( Mean 'UV/ No UV') [13]: 4.50 | TMT Ratio Mean 'UV/ No UV' [13]: 22.69 | Log2( Mean 'UV/ No UV') [14]: 4.03 | TMT Ratio Mean 'UV/ No UV' [14]: 16.35 | Log2( Mean 'UV/ No UV') [15]: 4.34 | TMT Ratio Mean 'UV/ No UV' [15]: 20.22 | Log2( Mean 'UV/ No UV') [16]: 3.93 | TMT Ratio Mean 'UV/ No UV' [16]: 15.27 | Log2( Mean 'UV/ No UV') [17]: 3.46 | TMT Ratio Mean 'UV/ No UV' [17]: 10.98 | Log2( Mean 'UV/ No UV') [18]: 3.56 | TMT Ratio Mean 'UV/ No UV' [18]: 11.82 | Log2( Mean 'UV/ No UV') [19]: 3.80 | TMT Ratio Mean 'UV/ No UV' [19]: 13.90 | Log2( Mean 'UV/ No UV') [20]: 3.48 | TMT Ratio Mean 'UV/ No UV' [20]: 11.17 | Log2( Mean 'UV/ No UV') [21]: 4.09 | TMT Ratio Mean 'UV/ No UV' [21]: 16.97 | Log2( Mean 'UV/ No UV') [22]: 4.36 | TMT Ratio Mean 'UV/ No UV' [22]: 20.55 | Log2( Mean 'UV/ No UV') [23]: 4.15 | TMT Ratio Mean 'UV/ No UV' [23]: 17.78 | Log2( Mean 'UV/ No UV') (protein Q8BJU0-2 Isoform 2 of Small glutamine-rich tetratricopeptide repeat-containing protein alpha (Sgta)): 3.93 | Log2( Mean 'UV/ No UV') [24]: 4.26 | TMT Ratio Mean 'UV/ No UV' [24]: 19.15 | Log2( Mean 'UV/ No UV') [25]: 4.59 | TMT Ratio Mean 'UV/ No UV' [25]: 24.13 | Log2( Mean 'UV/ No UV') [26]: 3.86 | TMT Ratio Mean 'UV/ No UV' [26]: 14.56 | Log2( Mean 'UV/ No UV') [27]: 3.46 | TMT Ratio Mean 'UV/ No UV' [27]: 10.99 | Log2( Mean 'UV/ No UV') [28]: 4.33 | TMT Ratio Mean 'UV/ No UV' [28]: 20.04 | Log2( Mean 'UV/ No UV') [29]: 4.38 | TMT Ratio Mean 'UV/ No UV' [29]: 20.75 | Log2( Mean 'UV/ No UV') [30]: 4.29 | TMT Ratio Mean 'UV/ No UV' [30]: 19.55 | Log2( Mean 'UV/ No UV') [31]: 4.09 | TMT Ratio Mean 'UV/ No UV' [31]: 16.99 | Log2( Mean 'UV/ No UV') (protein Q9DBF1-2 Isoform 2 of Alpha-aminoadipic semialdehyde dehydrogenase (Aldh7a1)): 3.89 | Log2( Mean 'UV/ No UV') (protein Q9EPJ9-2 Isoform 2 of ADP-ribosylation factor GTPase-activating protein 1 (Arfgap1)): 3.44 | Log2( Mean 'UV/ No UV') [32]: 4.27 | TMT Ratio Mean 'UV/ No UV' [32]: 19.26 | Log2( Mean 'UV/ No UV') [33]: 4.32 | TMT Ratio Mean 'UV/ No UV' [33]: 20.02 | Log2( Mean 'UV/ No UV') [34]: 3.94 | TMT Ratio Mean 'UV/ No UV' [34]: 15.37 | Log2( Mean 'UV/ No UV') [35]: 3.87 | TMT Ratio Mean 'UV/ No UV' [35]: 14.66 | Log2( Mean 'UV/ No UV') [36]: 4.21 | TMT Ratio Mean 'UV/ No UV' [36]: 18.52 | Log2( Mean 'UV/ No UV') [37]: 3.71 | TMT Ratio Mean 'UV/ No UV' [37]: 13.09 | Log2( Mean 'UV/ No UV') [38]: 3.47 | TMT Ratio Mean 'UV/ No UV' [38]: 11.09 | Log2( Mean 'UV/ No UV') [39]: 4.07 | TMT Ratio Mean 'UV/ No UV' [39]: 16.73 | Log2( Mean 'UV/ No UV') [40]: 3.76 | TMT Ratio Mean 'UV/ No UV' [40]: 13.55 | Log2( Mean 'UV/ No UV') [41]: 4.08 | TMT Ratio Mean 'UV/ No UV' [41]: 16.91 | Log2( Mean 'UV/ No UV') [42]: 4.16 | TMT Ratio Mean 'UV/ No UV' [42]: 17.83 | Log2( Mean 'UV/ No UV') [43]: 4.41 | TMT Ratio Mean 'UV/ No UV' [43]: 21.20
